In assay [1] the target is native endogenous human BACE1 (Homo sapiens (Human), UniProt P56817). Description: HEK293Swe Whole Cell Assay (Abeta lowering, ELISA). The class given is cell-based. The note with it: HEK293/APP751sw cells, Mean ± SEM. Background: ELISA stands for enzyme-linked immunosorbent assay.
The target in a further assay is human BACE1 (1-460):Fc (Homo sapiens (Human), UniProt P56817). Description: BACE1 FRET Assay. The class given is biochemical. The note with it: Mean ± SEM; purified recombinant huBACE1:Fc, FRET substrate, pH 4.6.
Assay [2] concerns the target native, endogenous murine BACE1 (Mus musculus (Mouse), UniProt P56818). Description: PDAPP Primary Neuronal Assay (Abeta lowering, ELISA). It is filed as cell-based. The note with it: primary cortical neurons from PDAPP embryos, 24 h, Mean ± SEM.
For the next assay, the target named is beta-secretase (Mus musculus (Mouse), UniProt P56818). Description: In Vivo Inhibition of Beta-Secretase in PDAPP mice.
Where [3] appears, read: Abeta 1-40 in conditioned media, read-out: HEK 293 Swe A-beta (1-40) ELISA IC50.
Where [4] appears, read: Abeta 1-40, read-out: PDAPP Neuron A-beta (1-40) ELISA IC50.
Setting [5] is: Abeta 1-42, read-out: PDAPP Neuron A-beta (1-42) ELISA IC50.
Where [6] appears, read: 10 mg/kg oral dose, 3 hours after administration, CSF.
[7] abbreviates: 10 mg/kg oral dose, 3 hours after administration, compared to vehicle-treated mice.
[8] abbreviates: 10 mg/kg oral dose, 3 hours, young female PDAPP mice, compared to vehicle-treated mice.
The mark [9] stands for this setting: 30 mg/kg oral dose, 3 hours after administration, compared to vehicle-treated mice.

The results in this text go back to patent publication US8772282B2, “Tetrahydropyrrolothiazine compounds” (Eli Lilly and Company, priority 2012, dated 2014).

SMILES strings stand for the structures. Counter-ions that a name gives are not always drawn. Like-named read-outs stand apart in the source and are kept apart here.

Chain of native, endogenous murine BACE1 (P56818 46-501): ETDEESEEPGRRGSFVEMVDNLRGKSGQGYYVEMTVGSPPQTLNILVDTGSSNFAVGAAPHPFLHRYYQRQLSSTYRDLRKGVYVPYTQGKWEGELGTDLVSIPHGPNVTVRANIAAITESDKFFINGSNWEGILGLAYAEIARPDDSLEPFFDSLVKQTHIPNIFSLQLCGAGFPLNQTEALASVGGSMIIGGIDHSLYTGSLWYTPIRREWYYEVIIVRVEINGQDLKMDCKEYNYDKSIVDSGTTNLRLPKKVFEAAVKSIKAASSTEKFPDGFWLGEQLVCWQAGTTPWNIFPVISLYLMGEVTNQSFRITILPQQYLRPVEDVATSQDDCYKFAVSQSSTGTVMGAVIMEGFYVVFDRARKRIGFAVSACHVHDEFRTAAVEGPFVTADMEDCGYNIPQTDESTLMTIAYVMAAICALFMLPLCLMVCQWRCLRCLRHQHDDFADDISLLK
Chain of beta-secretase (P56818 46-501): as above
Chain of native endogenous human BACE1 (P56817 46-501): as the sequence (P56818 46-501) above, with S6P, I162V, I165L, T180S, A182V, V340I, A393L, H443Q counted along it
Chain of human BACE1 (1-460):Fc (P56817 22-460): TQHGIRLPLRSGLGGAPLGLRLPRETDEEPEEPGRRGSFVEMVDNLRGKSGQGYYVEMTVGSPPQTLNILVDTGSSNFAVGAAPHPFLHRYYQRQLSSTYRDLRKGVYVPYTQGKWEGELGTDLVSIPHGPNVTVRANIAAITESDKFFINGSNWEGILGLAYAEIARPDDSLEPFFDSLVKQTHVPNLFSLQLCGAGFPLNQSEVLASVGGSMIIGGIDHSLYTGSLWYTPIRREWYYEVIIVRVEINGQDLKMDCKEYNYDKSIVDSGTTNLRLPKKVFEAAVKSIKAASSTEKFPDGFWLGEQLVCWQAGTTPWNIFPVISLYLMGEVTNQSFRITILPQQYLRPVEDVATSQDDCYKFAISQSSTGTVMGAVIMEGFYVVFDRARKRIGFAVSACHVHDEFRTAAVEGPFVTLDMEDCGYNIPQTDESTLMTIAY

The term IC50 denotes the concentration at which inhibition is half-maximal. On to `Cl.NC1=N[C@@]2(c3ccccc3)CN(c3ncc(F)cn3)C[C@H]2CS1` [Example 1, (4aR,7aS)-6-(5-Fluoropyrimidin-2-yl)-7a-phenyl-4,4a,5,7-tetrahydropyrrolo[3,4-d][1,3]thiazin-2-amine hydrochloride], for which the IC50 in assay [1] (setting [3]) amounted to 233 nM. In addition, the IC50 on human BACE1 (1-460):Fc is 64.4 nM. In addition, in assay [2] (setting [4]), the IC50 stood at 116 nM. The IC50 in assay [2] (setting [5]) was 103 nM. Besides, on beta-secretase (setting [6]), the “CSF Abeta 1-x levels reduced” value is “approximately 80%” and the “Reduction of CSF sAPPbeta” value is listed as 22%. For the same compound, on beta-secretase (setting [7]), the “Abeta 1-x peptide levels reduced in brain cortex” value is listed as “approximately 62%” and the “Abeta 1-x peptide levels reduced in brain hippocampus” value is given as “approximately 51%”. On beta-secretase (setting [8]), the “C99 levels reduced in brain cortex” value is ~63%, the “C99 levels reduced in brain hippocampus” value is reported as ~58%, the “sAPPb levels reduced in brain cortex” value is recorded as ~34% and the “sAPPb levels reduced in brain hippocampus” value is recorded as ~37%.
Take `NC1=N[C@@]2(c3ccc(F)s3)CN(c3ncccn3)C[C@H]2CS1` [Example 30, [(4aR,7aR)-7a-(5-Fluorothiophen-2-yl)-6-(pyrimidin-2-yl)-4,4a,5,6,7,7a-hexahydropyrrolo[3,4-d][1,3]thiazin-2-amine hydrochloride]: on human BACE1 (1-460):Fc, the IC50 was found to be 166 nM.
As to `Cl.N#Cc1ccc([C@]23CN(c4ncc(F)cn4)C[C@H]2CSC(N)=N3)s1` [Example 31, 5-[(4aR,7aR)-2-Amino-6-(5-fluoropyrimidin-2-yl)-4a,5,6,7-tetrahydropyrrolo[3,4-d][1,3]thiazin-7a(4H)-yl]thiophene-2-carbonitrile hydrochloride], at beta-secretase (setting [7]), the “Abeta 1-x peptide levels reduced in brain cortex” value is on record as “approximately 23%” and the “Abeta 1-x peptide levels reduced in brain hippocampus” value is given as “approximately 18%”. Further, on beta-secretase (setting [9]), the “Abeta 1-x peptide levels reduced in brain cortex” value is listed as ~63% and the “Abeta 1-x peptide levels reduced in brain hippocampus” value is ~51%.
`NC1=N[C@@]2(c3ccc(F)s3)CN(c3ncc(F)cn3)C[C@H]2CS1` [Example 32, [(4aR,7aR)-6-(5-Fluoropyrimidin-2-yl)-7a-(5-fluorothiophen-2-yl)-4,4a,5,6,7,7a-hexahydropyrrolo[3,4-d][1,3]thiazin-2-amine hydrochloride]: the IC50 in assay [1] (setting [3]) is 345 nM; in assay [1] (Abeta 1-42 in conditioned media, read-out: HEK 293 Swe A-beta (1-42) ELISA IC50) it was 356 nM; on human BACE1 (1-460):Fc it was 91.2 nM; in assay [2] (setting [4]), 378 nM; in assay [2] (setting [5]) it was 245 nM.
